Laboratory results from patent publication US20250074966A1, “AGENTS AND METHODS FOR PREVENTING OR INHIBITING ADAPTIVE IMMUNE RESPONSES ASSOCIATED WITH MULTIPLE SCLEROSIS” (Adaptive Biotechnologies Corporation, priority 2023, published 2025).

Tested on: ZO-1
Assay: Primary human T cells transfected with TCRs co-cultured overnight with HLA-DRB1*15:01 positive K562 target cells expressing antigen-encoding constructs, T cell activation via CD137 expression
Assay type: cell-based
Settings: antigen-encoding construct delivered as IVT RNA to K562 cells

MEETAIWEQHTVTLHRA [ZO-1]
processing and presentation of the antigen by HLA-DRB1*15:01 positive target cells: processed and presented
